According to patent publication US4018895A, “Aryloxyphenylpropylamines in treating depression” (Eli Lilly and Company, priority 1975, dated 1977):
Where a name gives a salt, the structure may show the parent alone. Read-outs that look alike come from different tables or passages of the source.

Key:
[1] = tested on: QRS complex of the electrocardiogram; assay: Electrocardiogram in anesthetized cats after intravenous injection; settings: in words
brain serotonin = assay: Prevention of brain serotonin depletion caused by 4-chloroamphetamine; type: in vivo; settings: rats injected with 4-chloroamphetamine; drug 15 mg./kg. intraperitoneally; 4 hours later
Protocol: Following this injection, the protecting drug was injected at a dose of 15 mg./kg. of rat-weight intraperitoneally and determinations of brain serotonin levels were carried out 4 hours later.

[2] = tested on: norepinephrine uptake by synaptosomes from rat brain; assay: In vitro blockade of norepinephrine uptake by synaptosomes from rat brain; type: biochemical; settings: norepinephrine 0.48 μM
Excerpt: (§1) This blockade is shown both in vitro with radioactive labelled compounds to determine the amount of monoamine uptake by synaptosomes from rat brain, and in vivo by a variety of methods. Among the physiologically active monoamines whose uptake is blocked by the compounds of this invention are included serotonin, norepinephrine and dopamine (3,4-dihydroxyphenylethylamine). […] Tables 1 and 2 which follow set forth the results of some of the in vitro determinations of the blockage of monoamine uptake by the compounds of this invention. In the tables, column 1 gives the R substituent on the 3-phenylpropylamine and columns 2-4, the concentration in micrograms per ml. that blocks the uptake of a particular amine by 50 percent for the amines--norephinephrine, serotonin, and dopamine. At the head of each column is given the concentration of the particular monoamine used in the experiment.

[3] = tested on: serotonin uptake by synaptosomes from rat brain; assay: In vitro blockade of serotonin uptake by synaptosomes from rat brain; type: biochemical; settings: serotonin 0.1 μM
Excerpt: as §1

[4] = tested on: hypothermia induced by the injection of reserpine; assay: Reserpine hypothermia reversal test; type: in vivo, mice; settings: for inhibition in vivo at 1 mg/kg / inhibition in vivo at 3 mg/kg / inhibition in vivo at 10 mg/kg / inhibition in vivo at 0.3 mg/kg: Mus musculus, ip, 1 h, Post-60 min., mice, read-out: Percent Antagonism Reserpine; for inhibition in vivo at 1 mg/kg: 1 mg./kg. intraperitoneally; for inhibition in vivo at 3 mg/kg: 3 mg./kg. intraperitoneally; for inhibition in vivo at 10 mg/kg: 10 mg./kg. intraperitoneally; for inhibition in vivo at 0.3 mg/kg: .3 mg./kg. intraperitoneally
Protocol: (§2) The apomorphine hypothermia antagonism test is carried out as follows: mice are injected with a dose of apomorphine known to reduce body temperature approximately 4° C. The compound under test is injected 1/2 hour before the injection of the apomorphine and the temperatures measured 1/2 hour after injection. The degree of antagonism is expressed as a percent reduction (as compared with controls) of the temperature decrease produced by the injection of the apomorphine. The reserpine hypothermia reversal test is carried out as follows: groups of mice are injected with reserpine and 16.5 hours later are injected intraperitoneally with graded doses of the drug, a different dose level being given to each group of mice. Temperatures are measured at 1 hour after injection of the drug under test and again the effectiveness of the drug is expressed as a percentage decrease in the hypothermia induced by the injection of reserpine as compared with the control group. In the tablets which follow, Table 4 gives the results in the apomorphine antagonism and reserpine reversal hypothermia tests for the secondary amines of this invention. In the table, the first column gives the substituent attached to the oxygen atom at the 3 position of the propylamine chain; columns 2 to 4 the percent antagonism against apomorphine hypothermia at dose levels of 0.3, 1 and 3 mg./kg. and columns 5-7 the percent reversal of reserpine hypothermia at the same dose levels.

[5] = tested on: dopamine uptake by synaptosomes from rat brain; assay: In vitro blockade of dopamine uptake by synaptosomes from rat brain; type: biochemical; settings: dopamine 0.2 μM
Excerpt: as §1

[6] = tested on: hypothermia induced by the injection of apomorphine; assay: Apomorphine hypothermia antagonism test; type: in vivo, mice; settings: for Reduction of apomorphine hypothermia: 10 mg./kg. dose, measured 60 minutes after injection of the apomorphine
Protocol: as §2, with “The compound under test is injected 1/2 hour before the injection of the apomorphine and the temperatures measured 1/2 hour after injection.” left out

[7] = tested on: response rates of pigeons; assay: Operant behavior, fixed-ratio, fixed interval schedule; type: in vivo
Excerpt: In manifesting their psychotropic action, the compounds of this invention also affect the behavior of animals trained in a variety of operant behavior schedules. Again, the activity of compounds of this invention in this type of test parallels that of known antidepressant drugs, particularly desmethylimipramine. […] With pigeons trained under an adjusting ratio schedule, the drugs of this invention affect behavior in the same way as does the marketed antidepressant, desmethylimipramine (DMI). […] The above results are consistent with antidepressant action.

[8] = Table 5, dimethylamino compounds
[9] = Mus musculus, Table 5, dimethylamino compounds, 1 mg./kg., Pre-30 min., mice, read-out: Percent Antagonism Apomorphine
[10] = Mus musculus, Table 5, dimethylamino compounds, 3 mg./kg., Pre-30 min., mice, read-out: Percent Antagonism Apomorphine
[11] = Mus musculus, Table 5, dimethylamino compounds, 10 mg./kg., Pre-30 min., mice, read-out: Percent Antagonism Apomorphine
[12] = Mus musculus, Table 4, secondary amines, 1 mg./kg., Pre-30 min., mice, read-out: Percent Antagonism Apomorphine
[13] = Mus musculus, Table 4, secondary amines, 3 mg./kg., Pre-30 min., mice, read-out: Percent Antagonism Apomorphine

Row | Compound | Concentration that blocks 50% of amine uptake, Norepinephrine ([2]; Table 1, scaffold drawing 3) | Concentration that blocks 50% of amine uptake, Serotonin ([3]; Table 1, scaffold drawing 3) | inhibition in vivo at 1 mg/kg [4, 8] [%] | inhibition in vivo at 3 mg/kg [4, 8] [%] | inhibition in vivo at 10 mg/kg [4, 8] [%] | Concentration that blocks 50% of amine uptake, Dopamine ([5]; Table 1, scaffold drawing 3) | inhibition in vivo at 3 mg/kg [6, 10] [%] | inhibition in vivo at 10 mg/kg [6, 11] [%] | also measured
1 | COc1ccccc1OC(CCN)c1ccccc1 (stereo not drawn) [3-(o-Methoxyphenoxy)-3-phenylpropylamine, 3-(o-methoxyphenoxy)-3-phenylpropylamine] |  |  |  |  |  |  |  |  | Effect on the electrocardiogram (widening of the QRS complex) [1]: affects the electrocardiogram similarly, but at far higher doses
2 | CNCCC(Oc1ccc(C(F)(F)F)cc1)c1ccccc1 (stereo not drawn) [p-trifluoromethylphenyl, N-methyl 3-(p-trifluoromethylphenoxy)-3-phenylpropylamine] |  |  |  |  |  |  |  |  | Brain serotonin level (brain serotonin): 0.69 ± .02 µg/g
3 | CC(C)c1ccccc1OC(CCN(C)C)c1ccccc1 (stereo not drawn) [o-isopropylphenyl, oxalate] | 1.5 mcq./ml. | > 100 mcq./ml. | 20 | 28 | 35 | > 100 mcq./ml. |  |  | inhibition in vivo at 0.3 mg/kg [4, 8]: 12%; Percent Antagonism Apomorphine ([6]; Table 5, dimethylamino compounds, 1 mg./kg., Pre-30 min., mice): 17%; Percent Antagonism Apomorphine ([6]; Table 5, dimethylamino compounds, 3 mg./kg., Pre-30 min., mice): 39%; Percent Antagonism Apomorphine ([6]; Table 5, dimethylamino compounds, 10 mg./kg., Pre-30 min., mice): 65%; Percent Antagonism Apomorphine ([6]; Table 5, dimethylamino compounds, .3 mg./kg., Pre-30 min., mice): 3%
4 | CN(C)CCC(Oc1ccccc1Cl)c1ccccc1.O=C(O)/C=C\C(=O)O (stereo not drawn) [o-chlorophenyl, N,N-dimethyl 3-(o-chlorophenoxy)-3-phenylpropylamine maleate] | .45 mcq./ml. | .2 mcq./ml. | 3 | 4 | 25 | .2 mcq./ml. | -17 | 57 | inhibition in vivo at 1 mg/kg [6, 9]: -10%
5 | CN(C)CCC=C1c2ccccc2CCc2ccccc21 [amitriptyline, reference compound] |  |  |  |  |  |  |  |  | Effect on the electrocardiogram (widening of the QRS complex) [1]: causes a widening of the QRS complex of the electrocardiogram; Activity in reversal of reserpine hypothermia ([4]; in words): active; Reduction of apomorphine hypothermia [6]: 100%; Activity in antagonism of apomorphine hypothermia ([6]; in words): active
6 | CN(C)CCCN1c2ccccc2CCc2ccc(Cl)cc21 [chloroimipramine] |  |  |  |  |  |  |  |  | Brain serotonin level (brain serotonin): 0.45 ± .03 µg/g
7 | CCc1ccccc1OC(CCN(C)C)c1ccccc1.O=C(O)C(=O)O (stereo not drawn) [o-ethylphenyl, N,N-dimethyl 3-(o-ethylphenoxy)-3-phenylpropylamine oxalate] | > 100 mcq./ml. | 3.5 mcq./ml. | 17 | 13 | 35 | > 100 mcq./ml. | 20 | 74 | 
8 | CN(C)CCC(Oc1ccccc1C(F)(F)F)c1ccccc1.Cc1ccc(S(=O)(=O)O)cc1 (stereo not drawn) [o-trifluoromethylphenyl, N,N-dimethyl 3-(o-trifluoromethylphenoxy)-3-phenylpropylamine p-toluene-sulfonate] | 70 mcq./ml. | .16 mcq./ml. |  |  | 10 | > 100 mcq./ml. | 32 | 55 | Concentration that blocks 50% of amine uptake, Norepinephrine ([2]; Table 2, scaffold drawing 4): 6.0 µg/mL; Concentration that blocks 50% of amine uptake, Serotonin ([3]; Table 2, scaffold drawing 4): 2.5 µg/mL; inhibition in vivo at 1 mg/kg ([4]; Table 4, secondary amines): 9%; inhibition in vivo at 3 mg/kg ([4]; Table 4, secondary amines): 8%; Concentration that blocks 50% of amine uptake, Dopamine ([5]; Table 2, scaffold drawing 4): > 100 µg/mL; inhibition in vivo at 1 mg/kg [6, 12]: 13%; inhibition in vivo at 3 mg/kg [6, 13]: 28%; inhibition in vivo at 1 mg/kg [6, 9]: 21%
9 | CNCCC(Oc1cccc(OC)c1)c1ccccc1.O=C(O)C(=O)O (stereo not drawn) [m-anisyl, N-methyl 3-phenyl-3-(m-methoxyphenoxy)propylamine oxalate] |  |  | -1 | 6 | 5 |  | -7 | -5 | Concentration that blocks 50% of amine uptake, Norepinephrine ([2]; Table 2, scaffold drawing 4): .15 µg/mL; Concentration that blocks 50% of amine uptake, Serotonin ([3]; Table 2, scaffold drawing 4): 4.5 µg/mL; inhibition in vivo at 1 mg/kg ([4]; Table 4, secondary amines): 21%; inhibition in vivo at 3 mg/kg ([4]; Table 4, secondary amines): 21%; inhibition in vivo at 0.3 mg/kg ([4]; Table 4, secondary amines): 8%; Concentration that blocks 50% of amine uptake, Dopamine ([5]; Table 2, scaffold drawing 4): .45 µg/mL; inhibition in vivo at 1 mg/kg [6, 12]: 15%; inhibition in vivo at 3 mg/kg [6, 13]: 71%; inhibition in vivo at 0.3 mg/kg ([6]; Mus musculus, Table 4, secondary amines, .3 mg./kg., Pre-30 min., mice, read-out: Percent Antagonism Apomorphine): 15%; inhibition in vivo at 1 mg/kg [6, 9]: -12%
10 | CNCCC(Oc1ccccc1OC)c1ccccc1.Cl (stereo not drawn) [o-anisyl, N-methyl 3-(o-methoxyphenoxy)-3-phenylpropylamine hydrochloride] |  |  |  |  |  |  |  |  | Persistence of the effect on response rates [7]: more than 24 hours; Reduction of apomorphine hypothermia [6]: 100%
11 | CCOc1ccccc1OC(CCN(C)C)c1ccccc1.O=C(O)C(=O)O (stereo not drawn) [o-phenetyl, N,N-dimethyl 3-(o-ethoxyphenoxy)-3-phenylpropylamine oxalate] | 3 mcq./ml. | 6 mcq./ml. |  | 16 | 40 | > 100 mcq./ml. | 13 | 76 | 
12 | CN(C)CCC(Oc1ccccc1)c1ccccc1 (stereo not drawn) [phenyl] | 1 mcq./ml. | .6 mcq./ml. | 20 | 20 | 49 | .3 mcq./ml. | 3 | 54 | 
